This experiment concerns the target T1, human TAS1R2-WT/TAS1R3-F749S (Homo sapiens, UniProt Q7RTX0+Q8TE23, F749S).
T1 construct: expressed in transfected cells; host or cells: HEK293T stably expressing Gα16gust44
T1 sequence (Q8TE23 20-839): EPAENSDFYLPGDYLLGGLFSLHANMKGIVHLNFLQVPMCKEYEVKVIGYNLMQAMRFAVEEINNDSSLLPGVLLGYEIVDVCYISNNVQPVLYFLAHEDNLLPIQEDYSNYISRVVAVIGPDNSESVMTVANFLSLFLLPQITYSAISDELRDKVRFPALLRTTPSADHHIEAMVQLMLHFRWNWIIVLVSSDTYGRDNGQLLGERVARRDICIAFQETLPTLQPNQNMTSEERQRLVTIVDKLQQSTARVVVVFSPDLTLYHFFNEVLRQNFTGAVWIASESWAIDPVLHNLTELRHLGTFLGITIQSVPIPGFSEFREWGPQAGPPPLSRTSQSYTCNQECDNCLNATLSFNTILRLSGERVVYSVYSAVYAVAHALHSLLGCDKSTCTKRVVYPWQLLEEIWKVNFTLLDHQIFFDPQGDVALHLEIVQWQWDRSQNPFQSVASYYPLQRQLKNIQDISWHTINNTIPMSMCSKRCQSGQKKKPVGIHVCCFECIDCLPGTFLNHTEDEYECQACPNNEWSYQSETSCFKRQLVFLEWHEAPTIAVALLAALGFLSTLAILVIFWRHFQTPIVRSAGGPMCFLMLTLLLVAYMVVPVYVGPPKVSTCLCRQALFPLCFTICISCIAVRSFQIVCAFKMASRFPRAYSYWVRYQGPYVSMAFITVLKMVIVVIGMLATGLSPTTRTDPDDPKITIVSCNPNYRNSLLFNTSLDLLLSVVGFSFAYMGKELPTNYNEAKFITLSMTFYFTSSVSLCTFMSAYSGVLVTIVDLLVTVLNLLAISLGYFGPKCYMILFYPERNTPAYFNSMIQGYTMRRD
T1 sequence (Q7RTX0 21-852 F749S): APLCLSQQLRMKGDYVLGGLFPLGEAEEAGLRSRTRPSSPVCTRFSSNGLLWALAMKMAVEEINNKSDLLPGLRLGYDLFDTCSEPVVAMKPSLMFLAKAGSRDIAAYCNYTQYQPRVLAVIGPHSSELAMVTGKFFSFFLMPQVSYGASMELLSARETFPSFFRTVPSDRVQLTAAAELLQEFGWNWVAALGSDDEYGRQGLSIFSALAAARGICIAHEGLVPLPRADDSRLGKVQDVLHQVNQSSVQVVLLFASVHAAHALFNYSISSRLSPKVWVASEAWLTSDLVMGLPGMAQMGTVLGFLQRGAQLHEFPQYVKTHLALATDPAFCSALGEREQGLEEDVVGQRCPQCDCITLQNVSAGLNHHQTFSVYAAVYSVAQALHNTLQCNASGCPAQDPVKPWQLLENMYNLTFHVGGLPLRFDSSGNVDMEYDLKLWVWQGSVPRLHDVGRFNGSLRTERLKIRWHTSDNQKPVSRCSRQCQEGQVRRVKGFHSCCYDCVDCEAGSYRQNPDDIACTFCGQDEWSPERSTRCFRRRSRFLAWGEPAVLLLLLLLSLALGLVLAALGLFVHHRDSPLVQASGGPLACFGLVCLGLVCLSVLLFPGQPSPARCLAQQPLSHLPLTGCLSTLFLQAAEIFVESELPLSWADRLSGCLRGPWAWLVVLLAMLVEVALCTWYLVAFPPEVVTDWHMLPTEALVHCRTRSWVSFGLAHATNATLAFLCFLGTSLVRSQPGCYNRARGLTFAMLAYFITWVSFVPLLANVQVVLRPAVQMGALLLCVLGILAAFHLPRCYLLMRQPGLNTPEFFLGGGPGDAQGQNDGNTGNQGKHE
Kind of experiment: Calcium mobilisation assay, TAS1R2-WT with TAS1R3 variant F749S. Format: cell-based. The conditions noted are these: for Max ΔF/F0: maximal signal amplitude. The text has this: The coding sequences for TAS1R2 and TAS1R3 were commercially synthesised, and the human codon was optimised for expression in human cells. The coding sequences of human TAS1R2 and TAS1R3 were subcloned and inserted into the mammalian expression vectors pcDNA6/myc-HisA and pcDNA4/myc-HisA (Invitrogen; Thermo Fisher Scientific; Illkirch, France) between the EcoRI and NotI restriction sites, generating the plasmids pcDNA6-TAS1R2 and pcDNA4-TAS1R3, respectively. To increase protein expression in mammalian cells, an upstream start codon was used, which was a sequence called MAX, corresponding to the QBI SP163 element also described in pcDNA4-HisMax (Invitrogen; Thermo Fisher Scientific; Illkirch, France). To measure the expression level of the receptor by immunohistochemistry, we used the FLAG sequence ([…]) in the C-terminal position, which encodes the FLAG tag epitope. SNP variants of TAS1R2 and TAS1R3 were constructed based on […], respectively, using site-directed mutagenesis (Genewiz; Leipzig, Germany).
The HEK293T cells were kindly provided by Jay P. Slack (Givaudan Flavors Corporation; Cincinnati, OH, USA). HEK293T cells stably transfected with Gα16gust44 [43, 67] were seeded in poly-D-lysine-coated clear-bottom black 96-well plates (0.35 × 10^5 cells/well) in high-glucose DMEM supplemented with 2 mM GlutaMAX, 10% dialysed foetal bovine serum with penicillin/streptomycin and G418 (400 μg/mL) at 37 °C and 6.3% CO2 in a humidified atmosphere as previously reported. […] As a negative control, HEK293T cells were mock-transfected with the empty expression vector. After a further 24 h of incubation, the HEK293T cells were washed with C1 buffer (130 mM NaCl, 5 mM KCl, 10 mM HEPES pH 7.4 and 2 mM CaCl2). The 96-well plates containing the cells were then stimulated with sweet-tasting compounds. […] Different concentration ranges were tested depending on the sweet compound injected. The Ca^2+ changes were expressed as fractional changes in fluorescent light intensity: ΔF/F = (F − F0)/F0, where F was the fluorescent light intensity at each point, and F0 was the value of emitted fluorescent light prior to stimulus application. To calculate dose–response relationships, the changes in fluorescence upon stimulus application were averaged, mock-subtracted and baseline-corrected. The dose–response data obtained were adjusted using a 4-parameter logistic equation. The half-maximal effective concentrations (EC50 values) and maximal signal amplitudes were calculated using SigmaPlot software (version 15.0) (Systat Software; San Jose, CA, USA).
For in vitro calcium mobilisation assay performed on hTAS1R2-SNPs, hTAS1R3-SNPs and mTAS1R3-I60T, 6 to 7 concentrations were tested for each sweet compound, plus buffer alone. All concentration–receptor combinations were measured in duplicate, and each experiment was repeated at least 4 times (8 wells/concentration). Results were expressed for each concentration as ΔF/F mean ± SEM and represented as dose–response curves.
Background: Calcium flux is commonly read through the fluorescence of an indicator in the cells.

The values that follow come from paper PMC11945486, “TAS1R2/TAS1R3 Single-Nucleotide Polymorphisms Affect Sweet Taste Receptor Activation by Sweeteners: The SWEET Project” (Nutrients, 2025).

Read-outs that look alike come from different tables or passages of the source. No end group written: not given here.

On to `OC[C@H]1O[C@H](O[C@]2(CCl)O[C@H](CCl)[C@@H](O)[C@@H]2O)[C@H](O)[C@@H](O)[C@H]1Cl` [Sucralose], for which the “R1 = Variant EC50/WT EC50” value is listed as 2.3 and the “Max ΔF/F0” value came to 0.18 ± 0.01. In addition, where the note is “read-out: EC50”, the EC50 (usually the concentration at which the effect is half-maximal) was 252 ± 36 µM.
Turning to `C[C@H](CC[C@@H](O[C@@H]1O[C@H](CO[C@@H]2O[C@H](CO)[C@@H](O)[C@H](O)[C@H]2O)[C@@H](O)[C@H](O)[C@H]1O[C@@H]1O[C@H](CO)[C@@H](O)[C@H](O)[C@H]1O)C(C)(C)O)[C@H]1CC[C@@]2(C)[C@@H]3CC=C4[C@@H](CC[C@H](O[C@@H]5O[C@H](CO[C@@H]6O[C@H](CO)[C@@H](O)[C@H](O)[C@H]6O)[C@@H](O)[C@H](O)[C@H]5O)C4(C)C)[C@]3(C)[C@H](O)C[C@]12C` [Mogroside V, mogroside V], the “R1 = Variant EC50/WT EC50” value was 2.1 and the “Max ΔF/F0” value turned out to be 0.47 ± 0.02. Also, where the note is “read-out: EC50”, the half-maximal effective concentration (EC50) stood at 65.5 ± 5.4 µM.
For the molecule `COC(=O)[C@H](Cc1ccccc1)NC(=O)[C@H](CC(=O)O)NCCC(C)(C)C` [Neotame], the “R1 = Variant EC50/WT EC50” value was found to be 1.5 and the “Max ΔF/F0” value turned out to be 0.22 ± 0.01. In addition, the EC50 (read-out: EC50) is 1.82 ± 0.12 µM.
For “brazzein (QDKCKKVYENYPVSKCQLANQCNYDCKLDKHARSGECFYDEKRNLQCICDYCEY; ends and bridges not checked; cysteine pairing not given here; UniProt P56552 1-54, looked up) [sweet-tasting protein obtained by recombinant production using the yeast Pichia pastoris]”, the “R1 = Variant EC50/WT EC50” value was determined as 1.9 and the “Max ΔF/F0” value was found to be 0.65 ± 0.01. The EC50 (brazzein) came to 212.2 ± 8.6 µg/mL.
Turning to `C=C(C)[C@@H]1CC=C(/C=N/O)CC1` [Perillartine, perillartine], the “R1 = Variant EC50/WT EC50” value came out at 0.9 and the “Max ΔF/F0” value is given as 1.90 ± 0.30. The concentration for a half-maximal effect (EC50) (read-out: EC50) turned out to be 12.1 ± 6.1 µM.
For the molecule `CC1=CC(=O)NS(=O)(=O)O1` [Acesulfame K, acesulfame K], the “R1 = Variant EC50/WT EC50” value amounted to 0.7 and the “Max ΔF/F0” value worked out at 0.04 ± 0.01. In addition, the half-maximal effective concentration (EC50) (read-out: EC50) was determined as 410 ± 242 µM.
As for `C=C1C[C@@]23CC[C@H]4[C@@](C)(CCC[C@@]4(C)C(=O)O[C@@H]4O[C@H](CO)[C@@H](O)[C@H](O[C@@H]5O[C@H](CO)[C@@H](O)[C@H](O)[C@H]5O)[C@H]4O[C@@H]4O[C@H](CO)[C@@H](O)[C@H](O)[C@H]4O)[C@@H]2CC[C@]1(O[C@@H]1O[C@H](CO)[C@@H](O)[C@H](O[C@@H]2O[C@H](CO)[C@@H](O)[C@H](O)[C@H]2O)[C@H]1O[C@@H]1O[C@H](CO)[C@@H](O)[C@H](O)[C@H]1O)C3` [Rebaudioside M, rebaudioside M], the “R1 = Variant EC50/WT EC50” value was 1.8 and the “Max ΔF/F0” value came out at 0.54 ± 0.03. Further, under “read-out: EC50”, the 50% effective concentration (EC50) was 71.8 ± 9.6 µM.
Turning to `O=S(=O)(O)NC1CCCCC1` [Cyclamate, cyclamate], the concentration for a half-maximal effect (EC50) (read-out: EC50) worked out at 3430 ± 1990 µM.
With `COc1ccc(CCC(=O)c2c(O)cc(O[C@@H]3O[C@H](CO)[C@@H](O)[C@H](O)[C@H]3O[C@@H]3O[C@@H](C)[C@H](O)[C@@H](O)[C@H]3O)cc2O)cc1O` [NHDC, neohesperidin dihydrochalcone], the “R1 = Variant EC50/WT EC50” value stood at 3.0 and the “Max ΔF/F0” value came out at 0.29 ± 0.01. Besides, the EC50 (read-out: EC50) is 150 ± 19.6 µM.
Take thaumatin: the “R1 = Variant EC50/WT EC50” value was 3.0 and the “Max ΔF/F0” value is recorded as 0.42 ± 0.03.

B1: thaumatin (protein)
chain: ATFEIVNRCSYTVWAAASKGDAALDAGGRQLNSGESWTINVEPGTKGGKIWARTDCYFDDSGSGICKTGDCGGLLRCKRFGRPPTTLAEFSLNQYGKDYIDISNIKGFNVPMDFSPTTRGCRGVRCAADIVGQCPAKLKAPGGGCNDACTVFQTSEYCCTTGKCGPTEYSRFFKRLCPDAFSYVLDKPTTVTCPGSSNYRVTFCPTA
modifications: Eight disulfides
notes: sweet-tasting plant protein, E957
On to B1, for which, under “read-out: EC50”, the EC50 came to 31.2 ± 3.5 µM.
